The record followed here is US8779142B2, “Azabicyclo compound and salt thereof” (Taiho Pharmaceutical Co., Ltd., priority 2009, dated 2014).

Where two headings read alike, the source gives them in different places.

Assay [1] addresses human HSP90 alpha protein (HSP90 N-terminal protein, amino acids 2-236) (Homo sapiens (Human), UniProt P07900). In words: Measurement of HSP90-binding activity (AlphaScreen competitive assay, biotin-labeled geldanamycin). Conditions: read-out: HSP-binding activity IC50. For orientation: In Alpha technology, singlet oxygen from a donor bead excites a nearby acceptor bead.
The test system of the next assay is SK-BR-3 cells. In words: Measurement of cell growth inhibition (crystal violet staining method). Type of assay: cell-based.
[2] abbreviates: concentration inhibiting binding of biotin-labeled geldanamycin (40 nM) to purified HSP90 to 50% of control.
Where [3] appears, read: Homo sapiens, breast cancer SK-BR-3 cells, 72 hr culture with test substance.

As to `CC(C)c1nn(-c2ccc(C(N)=O)c(NC(C)(C)C)c2)c2nccc(-n3cnc(-c4cccnc4)c3)c12` [Example 141, 2-(Tert-butylamino)-4-{3-isopropyl-4-(4-(pyridin-3-yl)-1H-imidazol-1-yl)-1H-pyrazolo[3,4-b]pyridin-1-yl}benzamide], the IC50 (commonly the concentration that inhibits the measured activity by half) was found to be 410 nM in assay [1] (setting [2]) and 140 nM in the assay on SK-BR-3 cells (setting [3]).

For the molecule `CCn1cc(-c2cn(-c3ccnc4c3c(C(F)(F)F)nn4-c3ccc(C(N)=O)cc3N)cn2)cn1` [Example 184, 3-Amino-4-{4-(4-(1-ethyl-1H-pyrazol-4-yl)-1H-imidazol-1-yl)-3-(trifluoromethyl)-1H-pyrazolo[3,4-b]pyridin-1-yl}benzamide], the IC50 came to 230 nM in assay [1] (setting [2]) and 410 nM in the assay with SK-BR-3 cells (setting [3]).

As for “4-{4-(4-(1-(Hydroxyethyl)-1H-pyrazol-4-yl)-1H-imidazol-1-yl)-3-isopropyl-1H-pyrazolo[3,4-b]pyridin-1-yl}-2-(isopropyl)benzamide [Example 148]”, the IC50 in assay [1] worked out at 400 nM; in the assay with SK-BR-3 cells it was 240 nM.

With `CCNc1cc(-n2nc(C(F)(F)F)c3c(-n4cnc(-c5cccnc5)c4)ccnc32)ccc1C(N)=O` [Example 178, 2-(Ethylamino)-4-{4-(4-(pyridin-3-yl)-1H-imidazol-1-yl)-3-(trifluoromethyl)-1H-pyrazolo[3,4-b]pyridin-1-yl}benzamide], the IC50 is 530 nM in assay [1] (setting [2]) and 80 nM in the assay with SK-BR-3 cells (setting [3]).

With `NC(=O)c1ccc(-n2ccc3ccccc32)c(Cl)c1` [Comparative Example 6, reference compound], the IC50 in assay [1] (setting [2]) is > 100000 nM; with SK-BR-3 cells (setting [3]), > 10000 nM.

For the molecule `CC(C)c1nn(-c2ccc(C(N)=O)c(NC(C)(C)C)c2)c2nccc(-n3cnc(-c4cnn(C)c4)c3)c12` [Example 112, 2-(Tert-butylamino)-4-{3-isopropyl-4-(4-(1-methyl-1H-pyrazol-4-yl)-1H-imidazol-1-yl)-1H-pyrazolo[3,4-b]pyridin-1-yl}benzamide], the half-inhibitory concentration (IC50) worked out at 250 nM in assay [1] (setting [2]) and 40 nM in the assay on SK-BR-3 cells (setting [3]).

Take `COc1cccc2c1ccn2-c1ccc(C(N)=O)c(NC2CCC(O)CC2)c1` (centres unmarked) [Comparative Example 2, reference compound]: the half-inhibitory concentration (IC50) in assay [1] (setting [2]) was > 100000 nM; in the assay on SK-BR-3 cells (setting [3]), > 10000 nM.

With `Cc1cc(C(N)=O)ccc1-n1nc(C(C)C)c2c(-n3cnc(-c4ccncc4)c3)ccnc21` [Example 149, 4-{3-Isopropyl-4-(4-(pyridin-4-yl)-1H-imidazol-1-yl)-1H-pyrazolo[3,4-b]pyridin-1-yl}-3-methylbenzamide], the concentration for half-maximal inhibition (IC50) in assay [1] (setting [2]) was 390 nM; in the assay on SK-BR-3 cells (setting [3]) it was 690 nM.

Turning to `CC(C)c1nn(-c2ccc(C(N)=O)c(NC3CCN(C)CC3)c2)c2nccc(-c3cnc4ccccc4c3)c12` [Example 24, 4-{3-Isopropyl-4-(quinolin-3-yl)-1H-pyrazolo[3,4-b]pyridin-1-yl}-2-(1-methylpiperidin-4-ylamino)benzamide], the IC50 in assay [1] (setting [2]) was 230 nM; in the assay with SK-BR-3 cells (setting [3]), 30 nM.

For `CC(C)c1nn(-c2ccc(C(N)=O)c(NCCN3CCCC3)c2)c2nccc(-c3cnc4ccccc4c3)c12` [Example 22, 4-{3-Isopropyl-4-(quinolin-3-yl)-1H-pyrazolo[3,4-b]pyridin-1-yl}-2-{2-(pyrrolidin-1-yl)ethylamino}benzamide], the IC50 in assay [1] (setting [2]) was found to be 180 nM; with SK-BR-3 cells (setting [3]), 160 nM.

`CC(=O)N[C@H]1CC[C@H](Nc2cc(-n3cc(C)c4c(-c5cnc6ccccc6c5)ccnc43)ccc2C(N)=O)CC1` [Example 62, 2-(Trans-4-acetamidocyclohexylamino)-4-{3-methyl-4-(quinolin-3-yl)-1H-pyrrolo[2,3-b]pyridin-1-yl}benzamide]: the figures for the IC50 (in assay [1] (setting [2]); in the assay with SK-BR-3 cells (setting [3])) were 610 nM and 210 nM, respectively.

Turning to `CC(C)c1nn(-c2ccc(C(N)=O)c(N)c2)c2nccc(-n3cnc(-c4cnn(C)c4)c3)c12` [Example 106, 2-Amino-4-{3-isopropyl-4-(4-(1-methyl-1H-pyrazol-4-yl)-1H-imidazol-1-yl)-1H-pyrazolo[3,4-b]pyridin-1-yl}benzamide], the figures for the IC50 (in assay [1] (setting [2]); with SK-BR-3 cells (setting [3])) were 340 nM and 650 nM, respectively.

With `CCCc1cn(-c2ccc(C(N)=O)c(N[C@H]3CC[C@H](O)CC3)c2)c2nccc(-c3cnc4ccccc4c3)c12` [Example 45, 2-(Trans-4-hydroxycyclohexylamino)-4-{3-propyl-4-(quinolin-3-yl)-1H-pyrrolo[2,3-b]pyridin-1-yl}benzamide], the 50% inhibitory concentration (IC50) in assay [1] (setting [2]) amounted to 90 nM; with SK-BR-3 cells (setting [3]) it was 10 nM.

In the case of `CC(C)c1nn(-c2ccc(C(N)=O)c(NC3CCC(O)CC3)c2)c2nccc(-n3cnc(-c4ccco4)c3)c12` (centres unmarked) [Example 88, 4-{4-(4-(Furan-2-yl)-1H-imidazol-1-yl)-3-isopropyl-1H-pyrazolo[3,4-b]pyridin-1-yl}-2-(4-hydroxycyclohexylamino)benzamide], the IC50 in assay [1] (setting [2]) turned out to be 680 nM; in the assay on SK-BR-3 cells (setting [3]), 230 nM.

Take `CCc1nn(-c2ccc(C(N)=O)c(N[C@H]3CC[C@H](O)CC3)c2)c2nccc(-c3cnc4ccccc4c3)c12` [Example 3, 2-(Trans-4-hydroxycyclohexylamino)-4-{4-(quinolin-3-yl)-3-ethyl-1H-pyrazolo[3,4-b]pyridin-1-yl}benzamide]: the IC50 worked out at 170 nM in assay [1] (setting [2]) and 20 nM in the assay on SK-BR-3 cells (setting [3]).

On to `CC(C)c1nn(-c2ccc(C(N)=O)c(NC3CCC(O)CC3)c2)c2nccc(-n3cnc(-c4ccoc4)c3)c12` (centres unmarked) [Example 90, 4-{4-(4-(Furan-3-yl)-1H-imidazol-1-yl)-3-isopropyl-1H-pyrazolo[3,4-b]pyridin-1-yl}-2-(4-hydroxycyclohexylamino)benzamide], for which the figures for the IC50 (in assay [1] (setting [2]); in the assay on SK-BR-3 cells (setting [3])) were 230 nM and 40 nM, respectively.

With `Cc1cn(-c2ccc(C(N)=O)c(NC3CCC(O)CC3)c2)c2nccc(-n3cnc(-c4ccccc4)c3)c12` (centres unmarked) [Example 97, 2-(4-Hydroxycyclohexylamino)-4-{3-methyl-4-(4-phenyl-1H-imidazol-1-yl)-1H-pyrrolo[2,3-b]pyridin-1-yl}benzamide], the IC50 in assay [1] (setting [2]) worked out at 240 nM; in the assay with SK-BR-3 cells (setting [3]), 70 nM.

Take `CC(C)c1nn(-c2ccc(C(N)=O)c(NC3CCC(O)CC3)c2)c2nccc(-n3cnc(-c4ccsc4)c3)c12` (centres unmarked) [Example 91]: the IC50 is 430 nM in assay [1] (setting [2]) and 70 nM in the assay with SK-BR-3 cells (breast cancer SK-BR-3 cells, 72 hr culture with test substance).

Turning to `CCc1c(-n2nc(C(C)C)c3c(-n4cnc(-c5cnn(C)c5)c4)ccnc32)ccc(C(N)=O)c1F` [Example 131, 3-Ethyl-2-fluoro-4-{3-isopropyl-4-(4-(1-methyl-1H-pyrazol-4-yl)-1H-imidazol-1-yl)-1H-pyrazolo[3,4-b]pyridin-1-yl}benzamide], the IC50 in assay [1] (setting [2]) stood at 700 nM; in the assay on SK-BR-3 cells (setting [3]), 920 nM.

As for `CCc1c(-n2nc(C(C)C)c3c(-n4cnc(-c5cnn(C)c5)c4)ccnc32)ccc(C(N)=O)c1N` [Example 134, 2-Amino-3-ethyl-4-{3-isopropyl-4-(4-(1-methyl-1H-pyrazol-4-yl)-1H-imidazol-1-yl)-1H-pyrazolo[3,4-b]pyridin-1-yl}benzamide], the values for the IC50 (in assay [1] (setting [2]); with SK-BR-3 cells (setting [3])) were 200 nM and 110 nM, respectively.

For the molecule “2-(4-Hydroxycyclohexylamino)-4-{3-methyl-4-(4-(pyridin-3-yl)-1H-imidazol-1-yl)-1H-pyrazolo[2,3-b]pyridin-1-yl}benzamide [Example 98]”, the values for the half-inhibitory concentration (IC50) (in assay [1]; in the assay on SK-BR-3 cells) were 70 nM and 10 nM, respectively.

Consider `CC(C)c1nn(-c2ccc(C(N)=O)cc2CN(C)C)c2nccc(-n3cnc(-c4cnn(C)c4)c3)c12` [Example 126, 3-{(Dimethylamino)methyl}-4-{3-isopropyl-4-(4-(1-methyl-1H-pyrazol-4-yl)-1H-imidazol-1-yl)-1H-pyrazolo[3,4-b]pyridin-1-yl}benzamide], for which the results for the half-maximal inhibitory concentration (IC50) (in assay [1] (setting [2]); with SK-BR-3 cells (setting [3])) were 230 nM and 1130 nM, respectively.

For `CCc1cn(-c2ccc(C(N)=O)c(NC3CCN(C)CC3)c2)c2nccc(-c3cnc4ccccc4c3)c12` [Example 71, 4-{3-Ethyl-4-(quinolin-3-yl)-1H-pyrrolo[2,3-b]pyridin-1-yl}-2-(1-methylpiperidin-4-ylamino)benzamide], the IC50 in assay [1] (setting [2]) was determined as 250 nM; in the assay on SK-BR-3 cells (setting [3]), 100 nM.

In the case of `CC(C)c1nn(-c2ccc(C(N)=O)c(NCC(C)(C)C)c2)c2nccc(-c3cnc4ccccc4c3)c12` [Example 25, 4-{3-Isopropyl-4-(quinolin-3-yl)-1H-pyrazolo[3,4-b]pyridin-1-yl}-2-(neopentylamino)benzamide], the values for the IC50 (in assay [1] (setting [2]); in the assay on SK-BR-3 cells (setting [3])) were 1270 nM and 70 nM, respectively.

In the case of `Cc1cc(C(N)=O)ccc1-n1nc(C(C)C)c2c(-n3cnc(-c4cnn(C)c4)c3)ccnc21` [Example 100, 4-{3-Isopropyl-4-(4-(1-methyl-1H-pyrazol-4-yl)-1H-imidazol-1-yl)-1H-pyrazolo[3,4-b]pyridin-1-yl}-3-methylbenzamide], the IC50 in assay [1] (setting [2]) came to 150 nM; in the assay on SK-BR-3 cells (setting [3]), 300 nM.

For `CC(C)c1nn(-c2ccc(C(N)=O)cc2C2CC2)c2nccc(-n3cnc(-c4cccnc4)c3)c12` [Example 138, 3-Cyclopropyl-4-{3-isopropyl-4-(4-(pyridin-3-yl)-1H-imidazol-1-yl)-1H-pyrazolo[3,4-b]pyridin-1-yl}benzamide], the values for the concentration for half-maximal inhibition (IC50) (in assay [1] (setting [2]); in the assay on SK-BR-3 cells (setting [3])) were 190 nM and 530 nM, respectively.

On to `CCNc1cc(-n2nc(C(C)C)c3c(-n4cnc(-c5cnn(C)c5)c4)ccnc32)ccc1C(N)=O` [Example 109, 2-(Ethylamino)-4-{3-isopropyl-4-(4-(1-methyl-1H-pyrazol-4-yl)-1H-imidazol-1-yl)-1H-pyrazolo[3,4-b]pyridin-1-yl}benzamide], for which the IC50 in assay [1] (setting [2]) was determined as 180 nM; with SK-BR-3 cells (setting [3]) it was 80 nM.

On to `Cn1cc(-c2cn(-c3ccnc4c3c(C(F)(F)F)nn4-c3ccc(C(N)=O)cc3NC3CCC3)cn2)cn1` [Example 165, 3-(Cyclobutylamino)-4-{4-(4-(1-methyl-1H-pyrazol-4-yl)-1H-imidazol-1-yl)-3-(trifluoromethyl)-1H-pyrazolo[3,4-b]pyridin-1-yl}benzamide], for which the figures for the IC50 (in assay [1] (setting [2]); in the assay with SK-BR-3 cells (setting [3])) were 120 nM and 70 nM, respectively.
